#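 Where inhibition never reached the appropriate level, the endpoint shown equals the highest concentration tested. Otherwise, values were interpolated linearly from a five-concentration, 48-hour dose response in 96-well plates. At the GI50, growth is halved. At the TGI there is no net growth.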 Where a SMILES comes first, the peptide text is derived from it. [ ]: non-standard residue; d: D form. The star is where a group is joined. Cbz = O=C(OCc1ccccc1)*; Aib = CC(C)(N)C(=O)O
# How the values were obtained:
# Experiment in all cases: inhibition of tumour cell growth, NCI panel, 48 h
# HL-60(TB) leukemia = tested on: HL-60(TB) leukemia
# OVCAR-8 ovarian = tested on: OVCAR-8 ovarian
# BT-549 breast = tested on: BT-549 breast
# HT29 colon = tested on: HT29 colon
# HOP-92 NSCLC = tested on: HOP-92 NSCLC
# NCI-H522 lung = tested on: NCI-H522 lung
# RPMI-8226 leukemia = tested on: RPMI-8226 leukemia
# NCI-H460 lung = tested on: NCI-H460 lung
# SR leukemia = tested on: SR leukemia
# OVCAR-3 ovarian = tested on: OVCAR-3 ovarian
# SK-OV-3 ovarian = tested on: SK-OV-3 ovarian
# MDA-N = tested on: MDA-N
Compound,TGI (HL-60(TB) leukemia) [µM],TGI (OVCAR-8 ovarian) [µM],TGI (BT-549 breast) [µM],TGI (HT29 colon) [µM],TGI (HOP-92 NSCLC) [µM],TGI (NCI-H522 lung) [µM],TGI (RPMI-8226 leukemia) [µM],TGI (NCI-H460 lung) [µM],TGI (SR leukemia) [µM],TGI (OVCAR-3 ovarian) [µM],TGI (SK-OV-3 ovarian) [µM],TGI (MDA-N) [µM],GI50 (OVCAR-8 ovarian) [µM],GI50 (BT-549 breast) [µM],GI50 (HOP-92 NSCLC) [µM],GI50 (NCI-H522 lung) [µM],GI50 (RPMI-8226 leukemia) [µM],GI50 (OVCAR-3 ovarian) [µM],GI50 (SK-OV-3 ovarian) [µM]
Cc1oc2nc(N(C)C)n3cnnc3c2c1C,> 100,> 100,> 100,> 100,> 100,> 100,> 100,> 100,> 100,> 100,> 100,,,,,,,,
NS(=O)(=O)c1ccc(NCc2nc3ccccc3[nH]2)cc1,,> 100,> 100,> 100,> 100,> 100,,> 100,,> 100,> 100,> 100,,,,,,,
COc1ccc(C2=NN(c3nsc4ccccc34)C(=O)CC2)cc1,> 100,> 100,,> 100,> 100,,> 100,> 100,> 100,> 100,,,,,,,,,
CSc1nc(-c2ccccc2)nc(=[N+]2CCOCC2)s1,> 100,> 100,,> 100,,84.1,,> 100,67.5,> 100,> 100,,,,,,,,
Cn1c(-c2c(C3=CC(=O)N(c4ccccc4)C3=O)c3ccccc3n2C)cc2ccccc21,> 100,> 100,,> 100,> 100,> 100,> 100,> 100,> 100,> 100,> 100,> 100,,,,,,,
CC(C)(NC(=O)C(C)(C)NC(=O)OCc1ccccc1)C(=O)O (Cbz-[Aib]-[Aib]-OH),,> 100,,> 100,> 100,> 100,> 100,> 100,> 100,> 100,> 100,> 100,,,,,,,
CCc1n[nH]c(=O)[nH]1,,> 100,> 100,> 100,,> 100,,> 100,> 100,> 100,> 100,> 100,,,,,,,
COc1cccc(N(CN2C(=O)CCC2OC)C(C)=O)c1 (stereo not given),49.2,> 100,,> 100,> 100,,> 100,> 100,> 100,> 100,> 100,> 100,,,,,,,
N=C(N)c1ccc(-c2ccc(-c3ccc(Cl)cc3Cl)s2)nc1,,6.41,28.6,,4,4.88,5.42,,,3.35,25.6,,2.51,6.53,1.76,2.19,2.32,1.83,8
CC1=C(C(=O)NCc2ccccc2)C(c2ccco2)C(C(=O)NCc2ccccc2)=C(C)N1,> 100,> 100,,> 100,> 100,> 100,> 100,> 100,> 100,> 100,> 100,,,,,,,,
O=[N+]([O-])c1ccc(Nc2cccc3c2[nH]c2c(-c4ccccc4)nccc23)c([N+](=O)[O-])c1,> 100,> 100,,> 100,> 100,> 100,> 100,> 100,,> 100,> 100,,,,,,,,
O=NNc1c[nH]c(=O)[nH]c1=O,> 100,> 100,,,> 100,> 100,> 100,,,> 100,> 100,> 100,,,,,,,
CCCCOc1ccc(S(=O)(=O)/N=C(\NO)Nc2ccc(Cl)cc2)cc1,,36.2,26.7,32.6,19.3,30.1,50.9,32.7,67.3,28.4,,31.6,,,,,,,
CCCCCCCCCCCCCCCCCCNc1nc(=O)n(C2CC(OP(=O)(O)OCC3OC(n4cc(F)c(=O)[nH]c4=O)CC3O)C(CO)O2)cc1F (stereo not given),20.3,73.3,,48.4,> 100,> 100,49.7,,35.1,> 100,> 100,,,,,,,,
COc1cc(-c2nc(SC)nc3c2CCc2ccccc2-3)cc(OC)c1OC,> 100,> 100,> 100,> 100,> 100,,68.8,,,> 100,> 100,,,,,,,,
O=C(O)c1cccc(S(=O)(=O)NN2C(=O)CSC2c2c(O)ccc3ccccc23)c1 (stereo not given),59.8,15.7,,69.2,,77.6,,> 100,59.6,62.5,> 100,> 100,,,,,,,
Cc1ccc2c(=O)cc(-c3cccc(F)c3)[nH]c2n1,0.0621,1.87,,1.11,> 100,0.0504,> 19.8,,,0.0415,,0.0362,,,,,,,
O=S(=O)(O)c1cc(N=[N+]([O-])c2ccc(N=Nc3ccccc3)cc2S(=O)(=O)O)ccc1/C=C/c1ccc(N=[N+]([O-])c2ccc(N=Nc3ccccc3)cc2S(=O)(=O)O)cc1S(=O)(=O)O,> 100,> 100,,> 100,> 100,> 100,> 100,> 100,,> 100,> 100,,,,,,,,
CC1CN=C(c2ccc(CN3CCC(CCCC4CCN(Cc5ccc(C6=NCC(C)N6)cc5)CC4)CC3)cc2)N1 (stereo not given),> 100,> 100,> 100,> 100,> 100,70.3,,36.8,,> 100,> 100,38.8,,,,,,,
O=c1onc(Nc2ccccc2)n1-c1ccccc1,> 100,> 100,> 100,> 100,> 100,,,> 100,> 100,> 100,> 100,> 100,,,,,,,
CCCCCCCCCCOc1ccc(N=Nc2nnc(-c3ccc(OCCCCC)cc3)s2)cc1,,> 100,> 100,> 100,> 100,> 100,> 100,> 100,,> 100,> 100,> 100,,,,,,,
Clc1ncnc2c1nc(C#Cc1ccccc1)n2C1CCCCO1 (stereo not given),6.94,12.4,4.1,3.98,3.83,3.65,,8.09,,2.92,21.3,8.12,,,,,,,

# From PubChem BioAssay (NCI)
